In patent US20120165319A1, “INHIBITORS OF INTERLEUKIN-1 BETA CONVERTING ENZYME” (VERTEX PHARMACEUTICALS INCORPORATED, priority 1995, published 2012):

Each compound was assayed against T1, ICE (Homo sapiens, UniProt P29466) (assay: Enzyme assay with UV-visible substrate (visible ICE assay, Succinyl-Tyr-Val-Ala-Asp-pNitroanilide)). Settings: Table 5.
T1 sequence (P29466 120-297 limits assumed): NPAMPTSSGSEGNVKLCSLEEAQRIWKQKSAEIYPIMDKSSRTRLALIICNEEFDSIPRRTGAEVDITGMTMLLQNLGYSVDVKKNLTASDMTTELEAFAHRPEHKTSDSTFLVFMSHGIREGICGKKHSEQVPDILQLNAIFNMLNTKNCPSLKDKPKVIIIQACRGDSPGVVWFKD
T1 sequence (P29466 317-404 limits assumed): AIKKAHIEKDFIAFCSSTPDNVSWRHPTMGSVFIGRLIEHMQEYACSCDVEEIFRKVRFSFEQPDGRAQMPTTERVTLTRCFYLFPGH
Format: biochemical
Experimental: 1. Enzyme Assay with Uv-Visible Substrate
This assay is run using an Succinyl-Tyr-Val-Ala-Asp-pNitroanilide substrate. Synthesis of analogous substrates is described by L. A. Reiter (Int. J. Peptide Protein Res. 12, 87-96 (1994)). The assay mixture contains:
The visible ICE assay is run in a 96-well microtiter plate. Buffer, ICE and DMSO (if inhibitor is present) are added to the wells in the order listed. The components are left to incubate at room temperature for 15 minutes starting at the time that all components are present in all wells. The microtiter plate reader is set to incubate at 37° C. After the 15 minute incubation, substrate is added directly to the wells and the reaction is monitored by following the release of the chromophore (pNA) at 405-603 nm at 37° C. for 20 minutes. A linear fit of the data is performed and the rate is calculated in mOD/min. DMSO is only present during experiments involving inhibitors, buffer is used to make up the volume to 100 μl in the other experiments.
For determination of enzyme inhibition constants (Ki) or the mode of inhibition (competitive, uncompetitive or noncompetitive), the rate data determined in the enzyme assays at varying inhibitor concentrations are computer-fit to standard enzyme kinetic equations (see I. H. Segel, Enzyme Kinetics, Wiley-Interscience, 1975).

Structure (SMILES)	Ki
C[S+](CC(=O)[C@H](CC(=O)O)NC(=O)[C@@H]1CCCN2C(=O)CC[C@H](NC(=O)c3ccccc3)C(=O)N12)Cc1ccccc1Cl (stereo partly drawn) [Compound 281]	50 nM
CN(C)S(=O)(=O)N[C@H]1CCC(=O)N2CCC[C@@H](C(=O)N[C@H](C=O)CC(=O)O)N2C1=O [Compound 428]	280 nM
N[C@H]1CCC(=O)N2CCC[C@@H](C(=O)N[C@H](C=O)CC(=O)O)N2C1=O [Compound 429]	7000 nM
O=C[C@H](CC(=O)O)NC(=O)[C@@H]1CCCN2C(=O)CC[C@H](NC(=O)c3cccc(F)c3)C(=O)N12 [Compound 462]	40 nM
O=C[C@H](CC(=O)O)NC(=O)[C@@H]1CCCN2C(=O)CC[C@H](NC(=O)/C=C/c3ccncc3)C(=O)N12 [Compound 472]	140 nM
CC(=O)c1ccc(C(=O)N[C@H]2CCC(=O)N3CCC[C@@H](C(=O)N[C@H](C=O)CC(=O)O)N3C2=O)cc1 [Compound 474]	85 nM
O=C[C@H](CC(=O)O)NC(=O)[C@@H]1CCCN2C(=O)CC[C@H](NC(=O)c3ccc(O)c(CN4CCOCC4)c3)C(=O)N12 [Compound 477]	60 nM
NS(=O)(=O)c1ccc(C(=O)N[C@H]2CCC(=O)N3CCC[C@@H](C(=O)N[C@H](C=O)CC(=O)O)N3C2=O)cc1 [Compound 478]	380 nM
O=C[C@H](CC(=O)O)NC(=O)[C@@H]1CCCN2C(=O)CC[C@H](NC(=O)Cc3ccccc3)C(=O)N12 [Compound 495]	43 nM
O=C[C@H](CC(=O)O)NC(=O)CN1C(=O)[C@@H](NC(=O)c2ccccc2)CN(C(=O)OC2CCOC2)c2ccccc21 (stereo partly drawn) [Compound 605q]	1000 nM
Cc1cccc(CC(=O)N2C[C@H](NC(=O)c3ccccc3)C(=O)N(CC(=O)N[C@H](C=O)CC(=O)O)c3ccccc32)c1 [Compound 605t, (3S)-3-[(3S)-2-Oxo-3-benzoylamino-5-(3-methylphenylacetyl)-2,3,4,5-tetrahydro-1H-1,5-benzodiazepin-1-acetylamino]-4-oxo-butyric acid]	33 nM
CC(=O)N1C[C@H](NC(=O)c2ccc3ccccc3n2)C(=O)N(CC(=O)N[C@H](C=O)CC(=O)O)c2ccccc21 [Compound 619]	300 nM
CC(=O)N1C[C@H](NC(=O)c2ccc3cc(OC(=O)c4ccc5cc(O)ccc5c4)ccc3c2)C(=O)N(CC(=O)N[C@H](C=O)CC(=O)O)c2ccccc21 [Compound 623]	9 nM
CC(=O)N1C[C@H](NC(=O)c2ccsc2)C(=O)N(CC(=O)N[C@H](C=O)CC(=O)O)c2ccccc21 [Compound 624]	300 nM
CC(=O)N1C[C@H](NC(=O)c2sc(C)nc2C)C(=O)N(CC(=O)N[C@H](C=O)CC(=O)O)c2ccccc21 [Compound 625]	105 nM
CC(=O)N1C[C@H](NC(=O)c2cccc(O)c2C)C(=O)N(CC(=O)N[C@H](C=O)CC(=O)O)c2ccccc21 [Compound 626]	260 nM
CC(=O)N1C[C@H](NS(=O)(=O)c2ccccc2)C(=O)N(CC(=O)N[C@H](C=O)CC(=O)O)c2ccccc21 [Compound 629]	230 nM
CC(=O)N1C[C@H](NC(=O)Cc2ccccc2)C(=O)N(CC(=O)N[C@H](C=O)CC(=O)O)c2ccccc21 [Compound 630]	270 nM
CC(=O)N1C[C@H](NS(=O)(=O)Cc2ccccc2)C(=O)N(CC(=O)N[C@H](C=O)CC(=O)O)c2ccccc21 [Compound 631]	805 nM
CC(=O)N1C[C@H](NC(=O)/C=C/c2ccccc2)C(=O)N(CC(=O)N[C@H](C=O)CC(=O)O)c2ccccc21 [Compound 632]	148 nM
CC(=O)N1C[C@H](NC(=O)O[C@H]2CCOC2)C(=O)N(CC(=O)N[C@H](C=O)CC(=O)O)c2ccccc21 [Compound 634]	1400 nM

Same assay, conditions: Table 17

Structure (SMILES)	Ki
CO/N=C/[C@H](CC(=O)O)NC(=O)[C@@H]1CCCN2C(=O)CC[C@H](NC(=O)c3ccc(OC)cc3)C(=O)N12 [Compound 308c, [3S(1S,9S)3-(9-(4-Methoxybenzoyl)amino-6,10-dioxo-1,2,3,4,7,8,9,10-octahydro-6H-pyridazino[1,2-a][1,2]diazepine-1-carboxamido)-amino]-4-oxobutanoic acid, O-methyl oxime]	3000 nM
COc1ccc(C(=O)N[C@H]2CCC(=O)N3CCC[C@@H](C(=O)N[C@H](/C=N/OCc4ccccc4)CC(=O)O)N3C2=O)cc1 [Compound 308d, [3S(1S,9S)3-(9-(4-Methoxybenzoyl)amino-6,10-dioxo-1,2,3,4,7,8,9,10-octahydro-6H-pyridazino[1,2-a][1,2]diazepine-1-carboxamido)-amino]-4-oxobutanoic acid, O-benzyl oxime]	3000 nM
CC(=O)NCC(=O)N1C[C@H](NC(=O)c2cccc3ccccc23)C(=O)N(CC(=O)N[C@H](C=O)CC(=O)O)c2ccccc21 [Compound 645, (3S)-3-[(3S)-2-Oxo-3-(1-naphthoyl)amino-5-(2-acetamido)acetyl-2,3,4,5-tetrahydro-1H-1,5-benzodiazepine-1-acetylamino]-4-oxo-butyric acid]	150 nM
CC(=O)N1C[C@H](NC(=O)/C=C/c2ccc(Cl)c(Cl)c2)C(=O)N(CC(=O)N[C@H](C=O)CC(=O)O)c2ccccc21 [Compound 700]	275 nM
CC(=O)N1C[C@H](NC(=O)C(=O)c2cccs2)C(=O)N(CC(=O)N[C@H](C=O)CC(=O)O)c2ccccc21 [Compound 701]	90 nM
CC(=O)N1C[C@H](NC(=O)CCc2ccc3c(c2)OCO3)C(=O)N(CC(=O)N[C@H](C=O)CC(=O)O)c2ccccc21 [Compound 707]	180 nM
CC(=O)N1C[C@H](NC(=O)/C=C/c2ccc3c(c2)OCO3)C(=O)N(CC(=O)N[C@H](C=O)CC(=O)O)c2ccccc21 [Compound 708]	140 nM
CC(=O)N1C[C@H](NC(=O)C(=O)Nc2ccc(Cl)cc2)C(=O)N(CC(=O)N[C@H](C=O)CC(=O)O)c2ccccc21 [Compound 710]	110 nM

Same assay, conditions: Table 27

Structure (SMILES)	Ki
COCC(=O)N1C[C@H](NC(=O)c2cc(C)c(O)c(C)c2)C(=O)N(CC(=O)N[C@H](/C=N/OCc2c(Cl)cccc2Cl)CC(=O)O)c2ccccc21 [Compound 688c, (3S)-3-[(3S)-2-Oxo-3-(3,5-dimethyl-4-hydroxybenzoyl)amino-5-methoxyacetyl-2,3,4,5-tetrahydro-1H-1,5-benzodiazepine-1-acetylamino]-4-oxobutyric acid, O-2,6-dichlorobenzyl oxime]	200 nM
O=C[C@H](CC(=O)O)NC(=O)CN1C(=O)[C@@H](NC(=O)c2nccc3ccccc23)CN(C(=O)CO)c2cc(F)ccc21 [Compound 696-1, (3S)-3-[(3S)-2-oxo-3-isoquinolin-1-oylamino-5-hydroxyacetyl-2,3,4,5-tetrahydro-7-fluoro-1H-1,5-benzodiazepine-1-acetylamino]-4-oxobutyric acid]	0.5 nM
O=C[C@H](CC(=O)O)NC(=O)CN1C(=O)[C@@H](NC(=O)c2nccc3ccccc23)CN(C(=O)CO)c2cc(Cl)ccc21 [Compound 696-2, (3S)-3-[(3S)-2-Oxo-3-isoquinolin-1-oylamino-5-hydroxyacetyl-2,3,4,5-tetrahydro-7-chloro-1H-1,5-benzodiazepine-1-acetylamino]-4-oxobutyric acid]	0.5 nM
COCC(=O)N1C[C@H](NC(=O)c2nccc3ccccc23)C(=O)N(CC(=O)N[C@H](C=O)CC(=O)O)c2ccccc21 [Compound 699, (3S)-3-[(3S)-2-Oxo-3-isoquinolin-1-oylamino-5-methoxyacetyl-2,3,4,5-tetrahydro-1H-1,5-benzodiazepine-1-acetylamino]-4-oxobutyric acid]	1.1 nM
